Data reported in paper PMC6503114, “Application of Antimicrobial Peptides of the Innate Immune System in Combination With Conventional Antibiotics—A Novel Way to Combat Antibiotic Resistance?” (Frontiers in Cellular and Infection Microbiology, 2019).
≈ marks a conversion by molar mass, not a printed value. Read-outs that look alike come from different tables or passages of the source. Where no end group is shown, it is not given here.

Key:
M. luteus CIP A270 = experiment: microbe, parasite or virus in culture; type: cell-based, Micrococcus luteus
Experimental: (§7) Prior to the “checkerboard” synergy test the minimal inhibitory concentrations (MIC) of individual substances were determined using broth microdilution assay. Testing was performed in 60-well polystyrene Terasaki microplates with V-shaped bottom generally according to the guidelines of the European Committee for Antimicrobial Susceptibility Testing with subtle modifications designed for AMP testing (Tossi et al., [1997]; Wiegand et al., [2008]). Cultivation of bacteria was carried out in 2.1% Müller-Hinton broth at 37°C with shaking. Two-fold serial dilutions of peptides, antibiotics and other antimicrobials were made with 10 mM sodium phosphate buffer, pH 7.4, containing 0.1% of BSA. The plates were preliminary incubated with 0.1% BSA for 1 h at 37°C to reduce a non-specific binding of peptides to the plates. After that BSA was removed, and serial dilutions were added into the plate wells in triplicates followed by the same volume of the suspension of bacterial cells in logarithmic phase of growth in concentration of 1 × 10^6 CFU/ml. After the 18 h overnight incubation at 37°C, the MIC value for each compound was determined as its lowest concentration completely inhibiting the visible growth of bacteria. The final results were calculated as median values based on 3–6 independent experiments.

Murine EAC = experiment: MTT-test; type: cell-based, mice; details: Murine EAC tumor cells, 24 h
Experimental: (§1) Before the cells extraction, mice were sacrificed by cervical dislocation in accordance with the supplement to the Directive 86/609/EEC and its update Directive 2010/63/EU addressing the recommendations for euthanasia of experimental animals (Close et al., [1996]). To obtain peritoneal macrophages, healthy mice were used. The abdominal cavity of each animal was washed with 3 ml of sterile PBS using a Pasteur pipette. The culture of EAC cells was kindly provided by Dr. E.P. Kiseleva (Immunology Department of the Institute of Experimental Medicine, Saint Petersburg, Russia). On the tenth day after the intraperitoneal tumor inoculation, 0.5–1.5 ml of ascitic fluid containing EAC cells was obtained from the abdominal cavity of the animals. Murine cells (normal or tumor) were washed twice with 10 ml of sterile PBS and resuspended in RPMI-1640 medium as described above for human neutrophils and PBMC.
(§2) We calculated Fractional Effective Concentration Index (FECI), which could be seen as a particular case of the interaction index (I) proposed by Berenbaum ([1977]) or of the similar combination index (CI) proposed by Chou and Talalay ([1983]), according to the equation below: […]
(§3) Here, [MEC A] and [MEC B] are the minimum effective concentrations (MEC) of substances A and B, when they are used alone. […] [A] and [B] are respective concentrations of substances A and B in their combination, where the same statistically significant difference is detected. A non-parametric Mann-Whitney U-test (p < 0.05 or p < 0.01) was used for the mentioned statistical comparison.
(§4) We have chosen the same intervals as that of FICI to determine synergy, additivity, independent action, and antagonism based on the minimal FECI values. However, in case of cytotoxic or hemolytic effect we were interested mainly in testing the possibility of additive or synergistic interaction itself, and not in assessing the exact magnitude of such interaction. Thus, in contrast to the “checkerboard titration” method used for combined antimicrobial activity investigation, studying the combined cytotoxic effect, we considered only two combinations of concentrations for the substances A and B in the mixture: • (½ MEC A + ½ MEC B), which, if found effective, provides the FECI value of 1 (the threshold value for additivity); • (¼ MEC A + ¼ MEC B), which, if found effective, provides the FECI value of 0.5 (the threshold value for synergetic interaction).
(§5) When action on tumor cells was tested in combination with antitumor antibiotic the lower concentrations up to ( 1/16 MEC A + 1/16 MEC B) as in checkerboard titration were additionally examined to assess the magnitude of synergistic effect more precisely. The final conclusion was made based on the three independent experiments.
(§6) Standard MTT-test (Mosmann, [1983]) was used for the examination of the cytotoxic activity of antimicrobial compounds and their combinations toward varied eukaryotic cells. Briefly, cell suspensions in RPMI-1640 prepared as described in Eukaryotic Cells were dispensed into the 96-well microplates (2 × 10^5 cells/well). Then, serial dilutions of AMPs, or other antibiotic compounds, or their mixtures in RPMI-1640 were added. In positive controls (100% cell survival) the according volume of RPMI-1640 without test substances was added instead. The final volume in each well was 100 μl. Negative controls (0% cell survival) were made with 100 μl of the sterile RPMI-1640. The plates were incubated at 37°C under 5% CO2 for 24 h. Four hours before the end of incubation, 10 μl of metabolic marker MTT−3-(4,5-dimethylthiazol-2-yl)-2,5-diphenyltetrazolium bromide (5 mg/ml, diluted in PBS) was added to each well. Incubation was stopped by adding 90 μl of isopropanol containing 0.04 M HCl. Content of the wells was thoroughly mixed, so that the formazan crystals, formed in case of the reduction of MTT in presence of actively metabolizing cells, were fully dissolved.

K562 = K562 tumor cells (doxorubicin-sensitive); MTT, 24 h
Experimental: The human erythromyeloid leukemia cell line K562 was obtained from the collection of the Institute of Cytology RAS (Saint Petersburg, Russia) and cultured in RPMI-1640 medium containing gentamicin (100 μg/ml) and 10% of fetal bovine serum at 37°C, 5% CO2. […] Drug resistance was maintained by monthly selection with the antibiotic (2 μg/ml in the culturing medium). Doxorubicin was removed from the medium 3 days prior to beginning any experiments. Before the testing K562 cells were washed twice with PBS and resuspended in RPMI-1640 in the same way as the other cell types.
as §2, §3, §4, §5, §6

[1] = tested on: Murine peritoneal macrophages; experiment: MTT-test
Experimental: as §1, §2, §3, §4, §5, §6

[2] = tested on: A. baumannii (clin. isol.); experiment: microbe, parasite or virus in culture; type: cell-based, Acinetobacter baumannii
Experimental: as §7

Human neutrophils = tested on: Human neutrophils
Experimental: The pellet formed under the Ficoll-400 layer after separation contained both neutrophils and erythrocytes. It was also transferred into a separate tube, where the red blood cells were lysed with 0.83% ammonium chloride solution, which was added in a ratio of 1:4. After the thorough mixing, the suspension was incubated for 10 min at room temperature, and then centrifuged for 10 min at 300 g and 4°C. The resulting precipitate containing neutrophils was washed twice with the sterile PBS.
as §2, §3, §4, §5
as §6, with “dissolved. The optical density of the samples was evaluated at 540 nm, subtracting the background absorbance at 690 nm, by SpectraMax 250 Spectrophotometer (Molecular Devices, USA). The experiments were repeated at least three times. In each experiment test samples were made in triplicates and control samples were made in hexaplicates.” for “dissolved.”

[3] = Micrococcus luteus, CIPA270, median of 3–6 experiments
[4] = Acinetobacter baumannii, A. baumannii (clin. isol.), susceptible, median of 3–6 experiments, read-out: MIC
[5] = Murine peritoneal macrophages, normal cells, MTT, 24 h
[6] = Human neutrophils, normal cells, MTT, 24 h
[7] = A. baumannii (clin. isol.), susceptible, median of 3–6 experiments, read-out: MIC

Row | Compound | MIC (M. luteus CIP A270; [3]) | MEC of cytotoxic action (Murine EAC) | MEC of cytotoxic action (K562) | MEC of cytotoxic action ([1]; mouse, 24 h) | MIC [2, 4] | MEC of cytotoxic action (Human neutrophils; human, 24 h) | MEC of cytotoxic action [1, 5] | MEC of cytotoxic action (Human neutrophils; [6]) | MIC ([2]; Acinetobacter baumannii) | MIC (M. luteus CIP A270; median of 3–6 experiments) | MEC of cytotoxic action [1] | MIC [2, 7] | MEC of cytotoxic action (Human neutrophils)
1 | CNC(C)C1CCC(N)C(OC2C(N)CC(N)C(OC3OCC(C)(O)C(NC)C3O)C2O)O1 (centres unmarked) [Gentamicin] | 0.16 µM (≈ 0.0764 µg/mL) | >50 [100] μM | 50 µM | >50 [100] μM | 0.06 µM (≈ 0.0287 µg/mL) | 50 µM | – | – | – | – | – | – | –
2 | CC[C@H](C)[C@H](NC(=O)[C@H](CCCCN)NC(=O)[C@H](CCC(=O)O)NC(=O)[C@H](CCCCN)NC(=O)[C@H](CO)NC(=O)[C@H](CCCCN)NC(=O)[C@H](CCCNC(=N)N)NC(=O)[C@H](Cc1ccccc1)NC(=O)[C@H](Cc1ccccc1)NC(=O)[C@H](CC(=O)O)NC(=O)CNC(=O)[C@H](CC(C)C)NC(=O)[C@@H](N)CC(C)C)C(=O)NCC(=O)N[C@@H](CCCCN)C(=O)N[C@@H](CCC(=O)O)C(=O)N[C@@H](Cc1ccccc1)C(=O)N[C@@H](CCCCN)C(=O)N[C@@H](CCCNC(=N)N)C(=O)N[C@H](C(=O)N[C@H](C(=O)N[C@@H](CCC(N)=O)C(=O)N[C@@H](CCCNC(=N)N)C(=O)N[C@H](C(=O)N[C@@H](CCCCN)C(=O)N[C@@H](CC(=O)O)C(=O)N[C@@H](Cc1ccccc1)C(=O)N[C@@H](CC(C)C)C(=O)N[C@@H](CCCNC(=N)N)C(=O)N[C@@H](CC(N)=O)C(=O)N[C@@H](CC(C)C)C(=O)N[C@H](C(=O)N1CCC[C@H]1C(=O)N[C@@H](CCCNC(=N)N)C(=O)N[C@H](C(=O)N[C@@H](CCC(=O)O)C(=O)N[C@@H](CO)C(=O)O)[C@@H](C)O)C(C)C)[C@@H](C)CC)C(C)C)[C@@H](C)CC [LL-37] | – | 10 µM | 5.0 µM | – | – | – | >20 [40] μM | 10 µM | – | – | – | – | –
3 | CC1COc2c(N3CCN(C)CC3)c(F)cc3c(=O)c(C(=O)O)cn1c23 (centres unmarked) [Ofloxacin] | 5 µM (≈ 1.81 µg/mL) | >50 [100] μM | >50 [100] μM | >50 [100] μM | 0.3 µM (≈ 0.108 µg/mL) | >50 [100] μM | – | – | – | – | – | – | –
4 | Cc1onc(-c2ccccc2)c1C(=O)N[C@@H]1C(=O)N2[C@@H]1SC(C)(C)[C@@H]2C(=O)O [Oxacillin] | 3.1 µM (≈ 1.24 µg/mL) | >50 [100] μM | >50 [100] μM | >50 [100] μM | 25 µM (≈ 10 µg/mL) | >50 [100] μM | – | – | – | – | – | – | –
5 | CO[C@H]1/C=C/O[C@@]2(C)Oc3c(C)c(O)c4c(O)c(c(/C=N/N5CCN(C)CC5)c(O)c4c3C2=O)NC(=O)/C(C)=C\C=C\[C@H](C)[C@H](O)[C@@H](C)[C@@H](O)[C@@H](C)[C@H](OC(C)=O)[C@@H]1C [Rifampicin] | 0.003 µM (≈ 0.00247 µg/mL) | >20 [40] μM | >20 [40] μM | >20 [40] μM | – | 20 µM | – | – | 0.125 µM (≈ 0.103 µg/mL) | – | – | – | –
6 | Lysozyme: egg white lysozyme, antimicrobial protein, from BioChemica | – | 50 µM | >50 [100] μM | – | – | – | – | – | – | 0.08 µM | >50 [100] μM | 1.2 µM | >50 [100] μM
7 | Polymyxin B | – | 50 µM | 25 µM | – | – | – | 50 µM | >50 [100] μM | – | 0.6 µM | – | 1.25 µM | –
8 | RFRLPFRRPPIRIHPPPFYPPFRRFL-NH2 (C-terminus assumed) [ChBac3.4] | – | 5.0 µM | 20 µM | – | – | – | – | – | – | – | >20 [40] μM | – | >20 [40] μM
